Results on 2 molecules are retold here after patent publication US20120003270A1, “6-SUBSTITUTED ISOFLAVONOID COMPOUNDS AND USES THEREOF” (priority 2008, published 2012).

The subject of one data set is red blood cells (RBC). The data set is described as follows: Peroxyl radical (AAPH)-induced red blood cell lysis. Format: cell-based. Particulars: test compounds at 1 μM; AAPH 150 mM; vehicle 40.0. As for the experimental part: Freshly collected heparinised venous blood (10 ml, on ice) was aliquotted into 1.8 ml sterile eppendorf tubes and centrifuged for 10 minutes at 2600 rpm at 4° C. Plasma and buffy coat layers were removed (approximately 900 μl) and packed red blood cells (RBC) were then washed by the addition of 900 μl of sterile, ice cold PBS. This washing procedure was repeated twice. Packed RBC were resuspended by the addition of 900 μl of ice-cold, sterile PBS (and termed RBC stock). RBC stocks were stored at 4° C. for a maximum of three days. All working suspensions of RBC were prepared fresh daily by diluting 200 μl of RBC stock into 10 ml of ice-cold, sterile PBS and 50 μl added to each well.
Stocks of AAPH were freshly prepared for individual experiments as follows. […] Turbidity of RBC suspensions were monitored using a Tecan microplate reader at 690 nm (37° C.) with gentle vortexing. Assays were performed in quadruplicate and readings were taken every 5 minutes over 5 hours. RBC lysis curves were constructed by plotting absorbance (mean of 4 readings) against time. Time to half-lysis was calculated by taking the highest absorbance reading (no lysis) and the lowest absorbance reading (maximum lysis). The sum of these two readings divided by two gave the absorbance at half-lysis. Simple regression analysis was used to calculate the time at which half-lysis absorbance occurred.

The test system of the next data set is AA-induced ear swelling. Put plainly: Murine ear inflammation assay, arachidonic acid (AA). It is filed as in vivo, mouse. To be noted: 25 mg/kg i/p; for Change in ear thickness (mean ± SD, ×0.01 mm): 1 hr post-AA. As for the experimental part: Groups of 5-6 female BALB/c mice (ARC, WA, Australia), weighing 15-21 g were injected intraperitoneally (i/p) with selected compounds of the formula (I) at 25 mg/kg delivered in polyethylene glycol (PEG) 400: phosphate buffered saline (PBS) 1:1 or ethanol: propanediol:PBS 4:9:7 either 30 min prior to or immediately before the inflammogen was applied to the ears. Mice were anaesthetised using isoflurane and baseline thickness of both ears was measured using a spring micrometer. Each mouse received a total of […] of either AA in ethanol (50 mg/ml or 200 mg/ml) or PMA in either ethanol or acetone (0.2 mg/ml) applied to the inner and outer surfaces of each pinna (i.e. 0.5 mg or 2 mg AA or 2 μg PMA per ear). Mice were anaesthetised again to re-measure the ears at 1 hr post-AA application and 5 hr after PMA. The difference in ear swelling pre- and post-application of inflammogen for each ear was calculated, and the average for the two ears of each mouse taken. The difference in mean swelling of each test group compared to the group given vehicle alone was calculated using a general ANOVA using Dunnett's Multiple Comparison test when multiple compounds were tested in the one experiment or a two-tailed unpaired t-test when only one compound was tested (Prism 4, Graphpad Software).

For the next data set, the system named is TNFα. Put plainly: TNFα synthesis in RAW 264.7 (ELISA). It is filed as cell-based, mouse. To be noted: LPS 50 ng/ml, 16 hrs. As for the experimental part:
The mouse macrophage cell line RAW 264.7 was cultured in DMEM supplemented with foetal calf serum (FCS), 2 mM glutamine and 50 U/ml penicillin/streptomycin. Cells were treated with either test compounds (in 0.025% DMSO) or vehicle alone, and added one hour before 50 ng/ml LPS. After incubation for 16 hrs, culture media was collected for PGE2 or TXB2 measurement by ELISA (Cayman Chemical), and TNFα measurement using an ELISA (Becton Dickinson).

A further data set concerns HUVECs. Put plainly: Microscopic appearance of HUVECs. Format: cell-based, human. As to the method: An effect on cell growth was observed microscopically at 100 μM but not at the lower doses. Normal HUVECs were predominantly epithelioid but included some spindle shaped cells. Cells were mainly healthy and viable, as indicated by their translucent appearance and adherence to the culture dish. Floating cells were presumed non-viable.

Data set [1] has as its system neonatal fibroblast foreskin (NFF). The data set is described as follows: Toxicity in normal cells (MTT), NFF. Format: cell-based. Particulars: Homo sapiens, 120 h, 5 days, top concentration 150 μM, read-out: Normal cell viability IC50. As for the experimental part:
Human neonatal fibroblast foreskin (NFF—a gift from Dr. Peter Parsons, Queensland Institute of Medical Research) or rabbit kidney (RK-13—a gift from Prof. Miller Whalley, Macquarie University) cells were seeded into 96 well plates and cultured in RPMI supplemented with 10% FCS (CSL, Australia), penicillin (100 U/ml), streptomycin ([…]), L-glutamine (2 mM) and sodium bicarbonate (1.2 g/L) at 37° C. and 5% CO2 for 24 hours until cells had attached and entered log phase of growth. Test compounds were added in serial two-fold dilutions from 150 μM in triplicate and incubated for a further 5 days. MTT was then added to each well, incubated for 3 hours at 37° C., after which the medium was tipped off. Following the addition of DMSO, the absorbance for each well was read on a plate reader. The assays were repeated at least twice.

For the molecule `O=C(O)C1CCCN1Cc1cc2c(cc1O)OCC(c1ccc(O)cc1)=C2` (centres unmarked) [Compound (3)], the “Time taken to reach half-lysis, time” value in the data set with red blood cells (RBC) was determined as 88.6 min. In addition, in the data set with AA-induced ear swelling, the “% Change compared with vehicle” value was −5.9% and the “Change in ear thickness (mean ± SD, ×0.01 mm)” value was found to be 22.2 ± 1.9 ×0.01 mm. Also, the “TNFα” value in the data set on TNFα (1 μM) came to 26677.52 ± 815.64 pg/mL. In the data set on TNFα (10 μM), the “TNFα” value was determined as 45429.44 ± 1630.68 pg/mL. For the same molecule, the “Microscopic appearance of treated cells” value in the data set with HUVECs is on record as “appeared healthy”. Besides, in data set [1], the concentration for half-maximal inhibition (IC50) (in general, the midpoint of a concentration-inhibition curve) stood at 111 ± 67.1 µM.
On to `CN(C)Cc1cc2c(cc1O)OCC(c1ccc(O)cc1)=C2` [Compound (1)], for which the “Time taken to reach half-lysis, time” value in the data set on red blood cells (RBC) is listed as 154.6 min. Besides, the “% Change compared with vehicle” value in the data set with AA-induced ear swelling is recorded as −7.0%. Also, the “Change in ear thickness (mean ± SD, ×0.01 mm)” value with AA-induced ear swelling is reported as 24.1 ± 0.1 ×0.01 mm. Moreover, the “TNFα” value with TNFα (1 μM) turned out to be 40002.31 ± 694.8 pg/mL; in the data set with TNFα (10 μM), 41958.94 ± 837.04 pg/mL. Moreover, the “Microscopic appearance of treated cells” value with HUVECs is “appeared healthy”. For the same molecule, in data set [1], the IC50 came out at 64.1 ± 9.6 µM.
